In publication PMC5109907, “Enhancing succinic acid biosynthesis in Escherichia coli by engineering its global transcription factor, catabolite repressor/activator (Cra)” (Scientific Reports, 2016):

B1: aceBAK 18-bp Cra site (dsDNA)
DNA 1: TCGTTAAGCGATTCAGCA
DNA 2: TGCTGAATCGCTTAACGA

Key:
[1] = target: T1, Cra (catabolite repressor/activator) (Escherichia coli, UniProt P0ACP1, R57K/A58G/G59Q/R60Q/S75H/D148I/R149I, form not given); assay: isothermal titration calorimetry, one-site fit; format: binding; details: 25 °C; 15 μM protein, 50 mM FBP injected; Tang1541 mutant
T1 construct: full-length, His6-tagged (tag encoded by the 3' primer, C-terminal), pET28a, expressed in E. coli BL21, Ni resin

[2] = target: T2, Cra (catabolite repressor/activator) (Escherichia coli, UniProt P0ACP1, R57K/A58T/G59N/R60Q/S75H/D148I/R149I, form not given); assay: isothermal titration calorimetry, one-site fit; format: binding; details: 25 °C; 15 μM protein, 50 mM FBP injected; Tang1544 mutant
T2 construct: full-length, His6-tagged (tag encoded by the 3' primer, C-terminal), pET28a, expressed in E. coli BL21, Ni resin

[3] = target: T3, Cra (catabolite repressor/activator) (Escherichia coli, UniProt P0ACP1); assay: isothermal titration calorimetry, one-site fit; format: binding; details: 25 °C; 15 μM protein, 50 mM FBP injected
T3 construct: full-length, His6-tagged (tag encoded by the 3' primer, C-terminal), pET28a, expressed in E. coli BL21, Ni resin

[4] = target: Cra wild type (Escherichia coli, UniProt P0ACP1 1-334); assay: EMSA; no FBP; EMSA: 50 nM oligonucleotide mixture annealed in TE buffer, with or without 1 mM FBP, 15 min at 30 C, nondenaturing 10% polyacrylamide gel, ethidium bromide; binding salt and pH not stated; details: protein: recombinant; tags: His6; chain copies: 4; label: none (ethidium bromide stain); blunt
[5] = target: Cra mutant (Tang1544) (Escherichia coli, UniProt P0ACP1 1-334, R57K;A58T;G59N;R60Q;S75H;D148I;R149I); assay: EMSA; no FBP; less free DNA than Tang1534; EMSA: 50 nM oligonucleotide mixture annealed in TE buffer, with or without 1 mM FBP, 15 min at 30 C, nondenaturing 10% polyacrylamide gel, ethidium bromide; binding salt and pH not stated; details: protein: recombinant; tags: His6; chain copies: 2; label: none (ethidium bromide stain); blunt

| Molecule | Kd [1] [nM] | Kd [2] [nM] | Kd [3] [nM] | binding result [4] | binding result [5] |
| --- | --- | --- | --- | --- | --- |
| O=P(O)(O)OC[C@H]1OC(O)(COP(=O)(O)O)[C@@H](O)[C@@H]1O (some centres unmarked) [FBP, fructose-1,6-bisphosphate] | 130 ± 37 | 95 ± 24 | 1400 | – | – |
| B1 | – | – | – | binds | binds |
